According to ChEMBL document CHEMBL1139785, “Synthesis of novel HIV protease inhibitors (PI) with activity against PI-resistant virus” (Bioorg Med Chem Lett, 2007):
pIC50: −log10 of the molar value.

Assays:
[1] = biological target: Protease (Human immunodeficiency virus 1, UniProt Q9YQ12); assay: Inhibition of wild type HIV1 NL4-3 protease
[2] = system: Human immunodeficiency virus 1; assay: Antiviral activity against HIV1 NL4-3 in MT4 cells by viral spread assay; assay type: functional; conditions: Human immunodeficiency virus 1, NL4-3, MT4; read-out: CIC95
[3] = Inhibition of HIV1 NL4-3 protease K60C mutant; set-up: species or system Human immunodeficiency virus 1
[4] = Inhibition of HIV1 NL4-3 protease V18C mutant; set-up: species or system Human immunodeficiency virus 1
[5] = system: Human immunodeficiency virus 1; assay: Antiviral activity against HIV1 with protease K60C mutant in MT4 cells by viral spread assay; conditions: Human immunodeficiency virus 1, MT4; read-out: CIC95
[6] = system: Human immunodeficiency virus 1; assay: Antiviral activity against HIV1 with protease V18C mutant in MT4 cells by viral spread assay; conditions: Human immunodeficiency virus 1, MT4; read-out: CIC95

Protease, sequence (Q9YQ12 whole entry): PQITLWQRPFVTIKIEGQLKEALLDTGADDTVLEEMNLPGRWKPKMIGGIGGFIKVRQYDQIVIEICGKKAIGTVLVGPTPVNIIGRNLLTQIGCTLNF

Row | Compound | pIC50 [1] | IC95 [2] [nM] | pIC50 [3] | pIC50 [4] | IC95 [5] [nM] | IC95 [6] [nM]
1 | Cc1cccc(C)c1CNC(=O)[C@@H]1CCN1C(=O)[C@@H](O)C[C@@H](Cc1ccccc1)C(=O)N[C@H]1c2ccccc2OC[C@H]1O | 7.05 | 1000 |  |  |  | 
2 | Cc1cccc(C)c1CNC(=O)[C@@H]1CCCN1C(=O)[C@@H](O)C[C@@H](Cc1ccccc1)C(=O)N[C@H]1c2ccccc2OC[C@H]1O | 7.85 | 1000 |  |  |  | 
3 | Cc1cccc(C)c1CNC(=O)[C@H]1N(C(=O)[C@@H](O)C[C@@H](Cc2ccccc2)C(=O)N[C@H]2c3ccccc3OC[C@H]2O)COC1(C)C | 9.77 | 15 | 8.66 | 8.89 | 500 | 62
4 | Cc1nsc(C)c1CNC(=O)[C@H]1N(C(=O)[C@@H](O)C[C@@H](Cc2ccccc2)C(=O)N[C@H]2c3ccccc3OC[C@H]2O)COC12CCCC2 | 10.00 | 125 | 9.40 | 9.10 | 250 | 250
5 | Cc1cccc(C)c1CNC(=O)[C@H]1N(C(=O)[C@@H](O)C[C@@H](Cc2ccccc2)C(=O)N[C@H]2c3ccccc3OC[C@H]2O)CSC1(C)C | 10.52 | 15 |  |  |  | 
6 | Cc1noc(C)c1CNC(=O)[C@H]1N(C(=O)[C@@H](O)C[C@@H](Cc2ccccc2)C(=O)N[C@H]2c3ccccc3OC[C@H]2O)COC12CCCC2 | 9.70 | 250 | 8.82 | 8.49 | 500 | 1000
7 | O=C(N[C@H]1c2ccccc2OC[C@H]1O)[C@H](Cc1ccccc1)C[C@H](O)C(=O)N1COC2(CCCC2)[C@H]1C(=O)NCc1c(Cl)cccc1Cl | 9.96 | 62.5 | 9.30 | 9.00 | 250 | 500
8 | Cc1cccc(C)c1CNC(=O)[C@@H]1CCCCN1C(=O)[C@@H](O)C[C@@H](Cc1ccccc1)C(=O)N[C@H]1c2ccccc2OC[C@H]1O | 7.38 | 1000 |  |  |  | 
9 | Cc1cccc(C)c1CNC(=O)[C@H]1N(C(=O)[C@@H](O)C[C@@H](Cc2ccccc2)C(=O)N[C@H]2c3ccccc3OC[C@H]2O)CCC1(C)C | 9.85 | 15 | 8.80 | 9.40 | 500 | 31
10 | Cc1cccc(C)c1CNC(=O)[C@H]1N(C(=O)[C@@H](O)C[C@@H](Cc2ccccc2)C(=O)N[C@H]2c3ccccc3OC[C@H]2O)COC12CCCC2 | 10.00 | 8 |  | 9.30 | 125 | 62
11 | CC(C)(C)NC(=O)[C@@H]1CN(Cc2cccnc2)CCN1C[C@@H](O)CC(Cc1ccccc1)C(=O)N[C@H]1c2ccccc2C[C@H]1O (single isomer, unassigned) |  | 45 | 7.21 | 7.36 | 1000 | 890
